Structures can show the parent of a compound that is named as a salt.
Tests used:
SUN1 in siLMNA cells = assay: SUN1 expression and localization in siLMNA cells; format: cell-based, human
Experimental: (§1) Cells were washed with PBS and fixed for 20 minutes with 2% PFA in PBS. Cells were permeabilised for 5 minutes with PBS/0.2% Triton X-100, and blocked with PBS/0.2% Tween 20 (PBS-T) containing 5% BSA. Coverslips were incubated for 1 hour with primary antibodies and for 30 minutes with appropriate secondary antibodies coupled to Alexa Fluor 488 or 594 fluorophores (Life Technologies), before being incubated with 2 μg/ml DAPI. Pictures were acquired with a FluoView 1000 confocal microscope (Olympus). For high resolution imaging, z-stacks were acquired with a Deltavision PersonalDV (Applied Precision, 1024×1024 CoolSNAP HQ2 camera, z-stack of 0.2 μm interval) or with a Deltavision OMX V3 in conventional mode (Applied Precision, 512×512 Cascade II cameras (Photometrics), z-stack of 0.125 μm interval) both equipped with a 100× UPlanSApo/1.40 oil objective (Olympus) and controlled with SoftWoRx software (Applied Precision). Deconvolutions were then performed with SoftWoRx (Applied Precision) in conservative mode. The different channels were acquired sequentially.

[1] = system: cells derived from patients with Emery-Dreifuss muscular dystrophy (EDMD); assay: γH2AX in Emery-Dreifuss muscular dystrophy cells; format: cell-based, human
Text: FIG. 12: Remodelin improves global cellular fitness of HGPS cells. A) NAT10 depletion in normal fibroblasts and HGPS AG11498 cells observed by western blotting, and showing that siNAT10 has no effect on Lamin A/C expression and processing. B) IF images showing nuclear shape improvement and decreased numbers of γH2AX foci in HGPS cells upon Remodelin treatment. Scale bars: 10 μm. C) Western Blotting analysis showing that Remodelin decreases γH2AX levels in both HGPS cell lines tested. D) IF images showing nuclear shape improvement and decreased intensity of γH2AX staining in Emery-Dreifuss muscular dystrophy cells (EDMD) upon Remodelin treatment. Scale bars: 10 μm. E) Western Blotting analysis showing that Remodelin decreases γH2AX levels in EDMD. F) Western blotting analysis showing the effect of Remodelin on the p53 and DNA damage signalling pathways in HGPS AG11498 cells. G) Representative IF images of H3K9me3 or SUN1 patterns quantified in H). Scale bars: 20 μm. […]
Total cell extracts were prepared by scraping cells in SDS lysis buffer (4% SDS, 20% glycerol, and 120 mM Tris-HCl, pH 6.8), boiling for 5 minutes at 95° C., followed by 10 strokes through a 25-gauge needle. […] Detection and quantification was performed with an imager (Odyssey; LI-COR Biosciences). […]

[2] = system: microtubule network of cells; assay: Microtubule network by immunofluorescence of α-Tubulin; format: cell-based
Experimental: as §1

[3] = system: prostate 22RV1 cancer cells; assay: Matrigel invasion assay; format: cell-based, human; conditions: 50 μM
Experimental: FIG. 15: Compound 2 inhibits the proliferation, migration and invasion of cancer cells with low Lamin A/C expression. […] C) Quantification of transwell migration assays and matrigel invasion assays from the indicated low expressing cancer cell lines after treatment with 50 μM of compound 2.

[4] = system: LMNA knock out (KO) U2OS cell line; assay: Cell growth of LMNA KO versus LMNA WT U2OS cells (IncuCyte ZOOM); format: cell-based, human; conditions: U2OS, CripR/Cas9 LMNA KO
Text: LMNA knock out (KO) U2OS cell line was engineered using CripR/Cas9 technology. The sensitivity of LMNA KO cells to Compound 2 was compared to cells expressing wild type LMNA (LMNA WT). Cell growth was monitored automatically over time using an IncuCyte ZOOM®. The results are shown in FIG. 21 which has been split into two graphs for easier reading of the curves.

HGPS fibroblasts = assay: Microarray gene expression, HGPS fibroblasts; format: cell-based, human
Experimental: (§2) Normal fibroblasts or HGPS fibroblasts were kept in culture for 12 population doublings with chronic treatment of 1 μM Compound 2 (top panels of FIG. 29) or transfected with siRNA against NAT10 for 3 days (bottom panels of FIG. 29). RNA was extracted and global gene expression was analysed by microarray. Volcano plots show a very high specificity of Compound 2 towards gene expression regulation of HGPS cells, with about 1000 genes affected more than 2 fold, whereas only 24 genes were affected in normal fibroblasts.

[5] = In vivo toxicity, body weight change; conditions: mice, oral daily dose for 14 days
Normal fibroblasts = assay: Microarray gene expression, normal fibroblasts; format: cell-based, human; conditions: 1 μM, 12 population doublings
Experimental: as §2

[6] = Compound concentration in heart and muscles; format: in vivo; conditions: mice, end of the 14 days oral treatment
Text: Right panel of FIG. 24: measurement of Compound 2 concentration in heart and muscles of mice treated with the indicated dose, at the end of the 14 days treatment.

[7] = system: GFP-H2B expressing U2OS cells transfected with siLMNA; assay: Live imaging of GFP-H2B cells; format: cell-based, human; conditions: Compound 2 at 50 μM, independently of mitosis
Experimental: U2OS cells were transfected with siLMNA for 48 hours before addition of (Compound 2) at 50 μM. Pictures were acquired every 15 minutes for 16 hours in z-stack of 0.2 μm interval with a Deltavision PersonalDV (Applied Precision, 512×512 CoolSNAP HQ2 camera) equipped with a 100× UPlanSApo/1.40 oil objective (Olympus) and controlled with SoftWoRx software (Applied Precision). Movies were then assembled from pictures with ImageJ software.

NAT10 = target: T1, NAT10 (Homo sapiens, UniProt Q9H0A0); assay: Clickable small molecule pull-down from live cells, western blotting; format: binding; conditions: pre-incubated in live U2OS cells, biotin linker, streptavidin beads
T1 construct: endogenous in cells; host or cells: U2OS
Experimental: Biotinylated Compound 3 and PEG4 biotinylated Compound A were generated in situ from Compounds 2 and 3, pre-incubated in live cells for 2 h prior to adding commercially available PEG4 carboxamide-6-azidohexanyl biotin and click reagents in cell extracts (used in click-pull-down and western blotting validation).
Click reaction reagents were added to the cell lysates as follows: 10 μM biotin azide (PEG4 carboxamide-6-Azidohexanyl Biotin, Life Sciences), 10 mM sodium ascorbate (Sigma-Aldrich), 2 mM CuSO4 (Life Sciences). Click reactions were incubated in the dark for 1 hour at 4° C. with rotation. Streptavidin beads were then incubated for 1 hour and samples were eluted and loaded on a gel as described above, before immunoblotting.

T1 sequence (Q9H0A0 whole entry): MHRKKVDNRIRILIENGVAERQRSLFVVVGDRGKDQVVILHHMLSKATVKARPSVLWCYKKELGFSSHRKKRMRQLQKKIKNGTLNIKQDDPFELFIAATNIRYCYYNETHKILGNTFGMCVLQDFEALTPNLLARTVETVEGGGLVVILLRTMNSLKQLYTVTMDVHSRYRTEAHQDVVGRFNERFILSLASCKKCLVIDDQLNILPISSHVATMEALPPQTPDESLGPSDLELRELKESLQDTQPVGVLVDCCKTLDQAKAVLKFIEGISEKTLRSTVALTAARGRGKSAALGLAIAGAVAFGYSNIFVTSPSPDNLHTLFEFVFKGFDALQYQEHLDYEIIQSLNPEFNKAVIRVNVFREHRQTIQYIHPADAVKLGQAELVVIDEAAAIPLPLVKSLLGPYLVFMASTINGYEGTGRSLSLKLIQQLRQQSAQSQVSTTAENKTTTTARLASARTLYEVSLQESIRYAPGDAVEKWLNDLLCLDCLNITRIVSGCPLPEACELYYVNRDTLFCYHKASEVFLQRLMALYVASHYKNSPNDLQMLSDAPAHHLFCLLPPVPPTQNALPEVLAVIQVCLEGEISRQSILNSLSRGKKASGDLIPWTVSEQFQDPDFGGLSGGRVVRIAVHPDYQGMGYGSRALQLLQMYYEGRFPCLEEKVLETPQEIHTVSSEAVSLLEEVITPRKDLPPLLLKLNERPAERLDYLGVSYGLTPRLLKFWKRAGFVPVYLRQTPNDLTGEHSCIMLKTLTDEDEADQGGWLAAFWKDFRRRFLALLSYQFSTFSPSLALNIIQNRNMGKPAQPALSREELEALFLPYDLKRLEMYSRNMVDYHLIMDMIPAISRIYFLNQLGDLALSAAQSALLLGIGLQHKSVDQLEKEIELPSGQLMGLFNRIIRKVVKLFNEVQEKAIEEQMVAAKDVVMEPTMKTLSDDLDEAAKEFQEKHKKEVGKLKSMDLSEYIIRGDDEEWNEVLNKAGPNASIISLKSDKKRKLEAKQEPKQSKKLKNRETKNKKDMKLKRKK

N#Cc1ccc(-c2csc(NN=C3CCCC3)n2)cc1 [Compound 1, 4-(4-Cyanophenyl)-2-(2-cyclopentylidenehydrazinyl)thiazole]
expression and localization of SUN1 (SUN1 in siLMNA cells): does not detectably affect the expression and localization of SUN1
γH2AX levels in EDMD cells [1]: decreased levels of γH2AX
microtubule network organization [2]: striking reorganization

Clc1ccc(-c2csc(NN=C3CCCC3)n2)cc1 [Compound 2, 4-(4-Chlorophenyl)-2-(2-cyclopentylidenehydrazinyl)thiazole Hydrochloride Salt]
matrigel invasion of 22RV1 cells [3]: no invasion upon treatment
cell growth inhibition of LMNA KO versus LMNA WT cells [4]: specificity of Compound 2 towards inhibiting cell growth of LMNA KO cells
number of genes affected more than 2 fold (HGPS fibroblasts; HGPS fibroblasts, 1 μM, 12 population doublings): about 1000 genes
genes misregulated in HGPS that are rescued (HGPS fibroblasts; HGPS vs normal fibroblasts, Venn diagrams): about half of the genes that are misregulated in HGPS compared to normal fibroblasts are rescued
tolerability (body weight change) [5]: well tolerated orally, up to high doses of 400 mg/kg/day, without significant decrease of body weight
number of genes affected (Normal fibroblasts): 24 genes
compound concentration in heart and muscles [6]: very high concentration of the compound in both heart and muscles
time to complete nuclear shape rescue [7]: ≤ 12 h

C#CCN(N=C1CCCC1)c1nc(-c2ccc(Cl)cc2)cs1 [Compound 3, 4-(4-Chlorophenyl)-2-(2-cyclopentylidene-1-(prop-2-yn-1-yl)hydrazinyl)thiazole]
retrieval of NAT10 in click pull-down (NAT10): specifically retrieved NAT10
